Experimental data taken from patent US11061017B2, “High throughput and functional screening method for muscle related disorders and biological processes” (CYTOO, priority 2015, dated 2021).

Experiments:
[1] = test system: myotubes from DMD donors; experiment: DMD myotube morphology rescue assay; assay type: cell-based, human; conditions: for increase of fusion index in DMD myotubes / increase of tube number in DMD myotubes: prednisone 500 nM, deflazacort 50 nM
Procedure: Using previously described protocol, human primary myoblasts, are cultured on fibronectin coated surfaces within growth medium during 24 hours. Then cells are cultured within differentiation medium (DMEM/F12, 2% Horse Serum, 0.5% P/S) for 24 hours. Therapeutic drug candidates are added and myotubes are then cultured during 96 hours. Cells are fixed and an immunostaining is realized against troponin T and nuclei. Images are acquired using an Operetta high content imaging system (PerkinElmer). Automated image processing was been developed by the inventors using the Acapella software library (PerkinElmer).

[2] = test system: myotubes from a healthy donor with chemically induced atrophy; experiment: Atrophy induction and atrophy rescue assay (muscle disuse or wasting model); assay type: cell-based, human; conditions: for reduction of myotube area (atrophy induction) / rescue of atrophy induced by dexamethasone: dexamethasone 100 μM; for reduction of myotube area (atrophy induction) / rescue of atrophy induced by myostatin: myostatin 4.8 nM; for reduction of myotube area (atrophy induction) / rescue of atrophy induced by IL1-β: IL1-β 1.16 nM; for reduction of myotube area (atrophy induction) / rescue of atrophy induced by TNF-α: TNF-α 115 pM; for reduction of myotube area (atrophy induction): 96 hours; for rescue of atrophy induced by IL1-β / rescue of atrophy induced by TNF-α / rescue of atrophy induced by dexamethasone / rescue of atrophy induced by myostatin: IGF-1 18.75 nM, trichostatin A 300 nM
Source text: Another possible application is to mimic muscle wasting disorders (cachexia, sarcopenia) by chemically inducing atrophy on myotubes from healthy donors and then to screen compounds potentially rescuing the atrophic phenotype. As patients suffering from a large decrease in muscle mass, primary myoblast samples or myofibers can't be collected for ethical reasons and artificial in vitro strategies are necessary. Nonetheless, signaling pathways impacted in cachexia and sarcopenia are well described in the literature implicating three major cascades: glucocorticoid, Smad2/3 and the NF-κB pathway. Molecules known to reproduce these molecular mechanisms can therefore be used to simulate pathological myotubes. For example, glucocorticoid pathway can be mimicked by dexamethasone treatment, Smad2/3 pathway by myostatin and TGF-β treatments, and NF-κB pathway by IL1-β and TNF-α treatments.
To do so, human primary myoblasts (HSMM, Lonza), from a healthy donor, are cultured on fibronectin coated surfaces within growth medium (Lonza SkGM™-2 cell culture Kit) during 24 hours. Then cells are cultured within differentiation medium (DMEM/F12, 2% Horse Serum, 0.5% P/S) for 24 hours. Candidates with potential rescue effect are added to the forming myotubes 15 minutes before the atrophic inducer. Then myotubes are cultured during 96 hours. Cells are fixed and an immunostaining is realized against troponin T and nuclei. Images are acquired using an Operetta high content imaging system (PerkinElmer). Automated image processing has been developed by the inventors using the Acapella software library (PerkinElmer).

[3] = test system: myotubes differentiated from healthy donors; experiment: Morphology assay (myotube area and nuclei count, dose response); assay type: cell-based, human; conditions: 96 hours, compared to untreated control
Procedure: Human primary myoblasts (HSMM, Lonza), from a healthy donor, are cultured on fibronectin coated surfaces within growth medium (Lonza SkGM™-2 cell culture Kit) during 24 hours. Then cells are cultured within differentiation medium (DMEM/F12, 2% Horse Serum, 0.5% P/S) for 24 hours. Compounds are added to the forming myotubes during 96 hours. Cells are fixed and an immunostaining is realized against troponin T and nuclei. Images are acquired using an Operetta high content imaging system (PerkinElmer).
In order to characterize compounds mode of action on the myotube model (including myoblasts differentiation, myotube maturation, myotube hypertrophy, myotube atrophy, or cell viability), automated image segmentation and analysis methods has been developed by the inventors using the Acapella software library (PerkinElmer).
First, customized segmentations of myotubes and nuclei are performed.
Second, objects are analyzed to extract basic parameters such as myotube count, nuclei count, myotube morphology (including their length, width, area, and orientation), fusion index (through the percentage nuclei within myotubes). Taking said parameters into account, aberrant myotubes are removed.

[4] = test system: myotubes from healthy donor; experiment: Inhibition of calcium release after acetylcholine or 4-chloro-m-cresol induction (Fluo-4); assay type: cell-based, human; conditions: tubocurarine 100 μM, succinylcholine 25 μM; for effect on 4-chloro-m-cresol induction of calcium release: 4-chloro-m-cresol 400 μM induction; for decrease of relative fluorescence intensity after acetylcholine induction: acetylcholine 20 μM induction, inhibitor added 15 minutes before, verapamil, nifedipine, nicardipine 40 μM
Procedure: (§1) As myotube shortening can also take origin from compound toxicity, physiological cues of myotube contraction need to be validated. Hit validation is performed using a secondary assay estimating the level of calcium release to myotube cytoplasm. Myotubes differentiated from donors are cultured during 5 days and stained with a calcium sensitive florescent probe Fluo-4 (2 μM) in a dedicated buffer (145 mM NaCl, 5 mM KCl, 1 mM CaCl2, 1 mM MgCl2, 5.6 mM glucose, 10 mM Hepes, pH 7.4). A single compound is added to cultured myotubes and a time-lapse acquisition is performed during 30 seconds (Eclipse-Ti, Nikon), by taking a picture each second, to follow the increase in fluorescence intensity of the probe due to calcium entry into the cytoplasm. After fluorescence background removal, a relative fluorescence intensity is calculated in the whole myotubes for each timepoint, normalizing to the first value set up at 100%.
Myoblasts are differentiated during 5 days in culture, then potential inhibitors are added in calcium buffer 15 minutes before an acethycholine treatment. […] Moreover mode of action characterization can be optimized by comparing a compound effect on both acethycholine and 4-chloro-m-cresol inductions. […] Even if a time-lapse method is described here using a classical widefield microscope, this embodiment of the invention is fully compatible with kinetic plate readers systems allowing automated calcium flow measurements, including the Hamamatsu FDSS.

[5] = test system: myotubes differentiated from healthy donors; experiment: Calcium release assay in myotubes (Fluo-4 time-lapse), inducers; assay type: cell-based, human; conditions: acetylcholine 20 μM, caffeine 10 mM, IGF-1 37 nM, 30 seconds time-lapse
Procedure: as §1

[6] = test system: myotubes from healthy and type I diabetes donors; experiment: Morphology of myotubes from healthy and type I diabetes donors; assay type: cell-based, human; conditions: insulin 10 μM
Procedure: (§2) Human primary myoblasts from a healthy or a type I diabetic donor, are cultured on fibronectin coated surfaces within growth medium during 24 hours. Then cells are cultured within differentiation medium (DMEM/F12, 2% Horse Serum, 0.5% P/S) for 24 hours. Therapeutic drug candidates are added and myotubes are then cultured during 96 hours. Compound effect on glucose metabolism is performed by using the indications provided by the manufacturer (Glucose Uptake Colorimetric Assay Kit, Sigma).
FIG. 10 is a quantification of some relevant morphological parameters, as tube number, fusion index, tube area tube width, of myotubes from healthy and type I diabetes donors, cultured in control and insulin (10 μM) conditions according to the invention. […] This illustrates the specificity of metabolisms assays on compounds detection and the complementarity of the approaches to detect new drugs rescuing specifically metabolic disorders.

[7] = test system: myotubes differentiated from myoblasts of healthy donors; experiment: Glucose metabolism assay (Glucose Uptake Colorimetric Assay Kit); assay type: cell-based, human
Procedure: as §2

[8] = test system: myotubes differentiated from healthy donors (human primary myoblasts HSMM, Lonza); experiment: Myotube shortening assay (contraction induction, troponin T immunostaining, image analysis); assay type: cell-based; conditions: 4-chloro-m-cresol 1.5 mM, 3 minutes
Procedure: Human primary myoblasts (HSMM, Lonza) are cultured on fibronectin coated surfaces within growth medium (Lonza SkGM™-2 cell culture Kit) during 24 hours. Then cells are cultured within differentiation medium (DMEM/F12, 2% Horse Serum, 0.5% P/S) for 5 days. Compounds (4-chloro-m-cresol, 1.5 mM) are added to myotubes during 3 minutes. Cells are fixed and an immunostaining is realized against troponin T and nuclei. Images are acquired using an Operetta high content imaging system (PerkinElmer). Automated image segmentation and analysis methods has been developed by the inventors using the Acapella software library (PerkinElmer). Then, objects are analyzed to extract basic parameters such as myotube count, nuclei count, myotube morphology (including their length, width, area), fusion index (through the percentage nuclei embedded within myotubes). However, the main descriptor of myotube shortening is the quantification of the number of spots, which are objects obtained due to myotube detachment from the culture device and subsequent folding of at least one extremity of the myotube on itself (FIG. 2B, right). Taking said parameters into account, aberrant myotubes are removed. An advanced descriptor is additionally measured, as the number of myotubes encompassing a length lower than 470 μm. […] As myotubes treatment with 4-chloro-m-cresol induces 25% decrease in tube area, and 50% increase in staining intensity readouts, the use of spot number quantification largely increases the assay window (1000%) with a reduced variability, ensuring a full compatibility of the assay with compounds screening (Z′-factors higher than 0.7).

C[C@]12C=CC(=O)C=C1CC[C@@H]1[C@@H]2C(=O)C[C@@]2(C)[C@H]1CC[C@]2(O)C(=O)CO [Prednisone, prednisone]
increase of fusion index in DMD myotubes [1]: 28% | increase of tube number in DMD myotubes [1]: 20%

myostatin: atrophic reference compound, Smad2/3 pathway
reduction of myotube area (atrophy induction) [2]: 30% | effect on nuclei count [3]: decrease in nuclei count

C[N+](C)(C)CCOC(=O)CCC(=O)OCC[N+](C)(C)C [succinylcholine]
effect on 4-chloro-m-cresol induction of calcium release [4]: −30% | decrease of relative fluorescence intensity after acetylcholine induction [4]: 94%

COC(=O)C1=C(C)NC(C)=C(C(=O)OCCN(C)Cc2ccccc2)C1c1cccc([N+](=O)[O-])c1 (stereo not drawn) [nicardipine]
decrease of relative fluorescence intensity after acetylcholine induction [4]: 91%

CC(=O)OCC[N+](C)(C)C [acethylcholine, acetylcholine]
increase of relative fluorescence intensity (calcium release) compared to steady state level [5]: 305%

CC(/C=C/C(=O)NO)=C\[C@@H](C)C(=O)c1ccc(N(C)C)cc1 [trichostatin A]
rescue of atrophy induced by IL1-β [2]: 54% | rescue of atrophy induced by TNF-α [2]: 100% | rescue of atrophy induced by dexamethasone [2]: 175% | rescue of atrophy induced by myostatin [2]: 71% | effect on myotube area [3]: atrophy/hypertrophy biphasic effects

C[C@@H]1C[C@H]2[C@@H]3CCC4=CC(=O)C=C[C@]4(C)[C@@]3(F)[C@@H](O)C[C@]2(C)[C@@]1(O)C(=O)CO [dexamethasone]
reduction of myotube area (atrophy induction) [2]: 60%

Insulin
effect on myotube morphology (tube number, fusion index, tube area, tube width) [6]: does not modify myotube morphology | increase of glucose metabolism ([7]; insulin 10 μM): 67%

IL1-β: atrophy inducer, NF-κB pathway
reduction of myotube area (atrophy induction) [2]: 35%

Cn1c(=O)c2c(ncn2C)n(C)c1=O [caffeine]
increase of relative fluorescence intensity (calcium release) compared to steady state level [5]: 55%

Cc1cc(O)ccc1Cl [4-chloro-m-cresol]
spot number quantification, assay window [8]: 1000% | decrease in tube area ([8]; myotubes cultured 5 days): 25% | increase in staining intensity ([8]; troponin T staining): 50%

IGF-1: hypertrophic reference compound
rescue of atrophy induced by IL1-β [2]: 85% | rescue of atrophy induced by TNF-α [2]: 89% | rescue of atrophy induced by dexamethasone [2]: 275% | rescue of atrophy induced by myostatin [2]: 71% | rescue of fusion index in DMD myotubes ([1]; IGF-1 37 nM, 96 hours): 204% | rescue of myotube width in DMD myotubes ([1]; IGF-1 37 nM, 96 hours): 15% | rescue of tube number in DMD myotubes ([1]; IGF-1 37 nM, 96 hours): 109% | effect on glucose uptake ([7]; IGF-1 37 nM): no effect | increase of relative fluorescence intensity (calcium release) compared to steady state level [5]: 20% | effect on myotube area [3]: hypertrophic | effect on nuclei count [3]: without nuclei count alteration

COc1cc2c3cc1Oc1cc(ccc1O)C[C@@H]1c4c(cc(OC)c(O)c4Oc4ccc(cc4)C[C@@H]3N(C)CC2)CC[N+]1(C)C [Tubocurarine, tubocurarine]
effect on 4-chloro-m-cresol induction of calcium release [4]: 0% | decrease of relative fluorescence intensity after acetylcholine induction [4]: 96%

TGF-β: atrophic reference compound, Smad2/3 pathway
effect on myotube area [3]: atrophic | effect on nuclei count [3]: without nuclei count alteration

TNF-α
reduction of myotube area (atrophy induction) [2]: 55%

CC(=O)OCC(=O)[C@@]12N=C(C)O[C@@H]1C[C@H]1[C@@H]3CCC4=CC(=O)C=C[C@]4(C)[C@H]3[C@@H](O)C[C@@]12C [deflazacort]
increase of fusion index in DMD myotubes [1]: 59% | increase of tube number in DMD myotubes [1]: 54%
